Results reported in patent US10196386B2, “Compounds having muscarinic receptor antagonist and beta2 adrenergic receptor agonist activity” (priority 2016, dated 2019).

Columns and labels:
Human β2 adrenoceptor = molecular target: T1, Human β2 adrenoceptor (Homo sapiens, UniProt P07550); assay: β2 adrenoceptor radioligand binding assay
T1 construct: purchased Perkin Elmer
Procedure: β2 Adrenoceptor Radioligand Binding Assay
Human β2 adrenoceptor membranes (7.5 ug/well) from Perkin Elmer were incubated with 0.3 nM 125-I Cyanopindolol with or without test compounds, or a saturating concentration of s-propranolol (2 μM) for the determination of non-specific binding. The assay was carried out in 96-well polypropylene plates in a volume of 200 ul. The assay buffer used was 25 mM HEPES, 0.5% BSA (w/v), 1 mM EDTA, 0.02% ascorbic acid (v/v), (pH 7.4). The final assay concentration of DMSO was 0.5% (v/v). The plates were sealed and incubated for 1 h at room temperature on an orbital shaker (slow speed). Membranes were harvested onto 96-well unifilter GF/C filter plates pre-treated with 0.5% polyethyleneimine (v/v), using a filter manifold, washed six times with 200 ul of wash buffer containing 10 mM HEPES and 500 mM NaCl. The plates were dried before addition of 50 μl of microscint-0, sealed then read in a Trilux Microbeta scintillation counter. IC50 values are determined from competition curves using a non-linear curve fitting program. Ki values were calculated from IC50 values by the Cheng and Prusoff equation.

Human M3 receptor = molecular target: T2, Human M3 receptor (Homo sapiens, UniProt P20309); assay: biochemical; assay type: binding; settings: read-out: M3 Range
T2 construct: purchased Perkin Elmer
T2 sequence (P20309 whole entry): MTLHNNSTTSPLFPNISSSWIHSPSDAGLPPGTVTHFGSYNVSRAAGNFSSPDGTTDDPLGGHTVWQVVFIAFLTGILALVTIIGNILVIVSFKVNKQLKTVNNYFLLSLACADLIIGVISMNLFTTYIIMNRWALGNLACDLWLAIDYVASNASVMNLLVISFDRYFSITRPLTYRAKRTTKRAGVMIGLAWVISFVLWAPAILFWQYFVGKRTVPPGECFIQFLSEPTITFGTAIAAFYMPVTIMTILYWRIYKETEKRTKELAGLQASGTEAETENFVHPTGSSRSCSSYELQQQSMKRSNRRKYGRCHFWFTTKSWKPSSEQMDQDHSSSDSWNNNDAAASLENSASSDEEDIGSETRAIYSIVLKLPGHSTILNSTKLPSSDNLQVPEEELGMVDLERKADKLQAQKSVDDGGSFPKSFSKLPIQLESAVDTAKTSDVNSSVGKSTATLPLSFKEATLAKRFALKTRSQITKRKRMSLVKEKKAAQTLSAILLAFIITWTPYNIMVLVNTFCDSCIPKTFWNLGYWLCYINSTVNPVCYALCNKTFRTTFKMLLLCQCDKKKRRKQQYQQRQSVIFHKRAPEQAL

T1 sequence (P07550 whole entry): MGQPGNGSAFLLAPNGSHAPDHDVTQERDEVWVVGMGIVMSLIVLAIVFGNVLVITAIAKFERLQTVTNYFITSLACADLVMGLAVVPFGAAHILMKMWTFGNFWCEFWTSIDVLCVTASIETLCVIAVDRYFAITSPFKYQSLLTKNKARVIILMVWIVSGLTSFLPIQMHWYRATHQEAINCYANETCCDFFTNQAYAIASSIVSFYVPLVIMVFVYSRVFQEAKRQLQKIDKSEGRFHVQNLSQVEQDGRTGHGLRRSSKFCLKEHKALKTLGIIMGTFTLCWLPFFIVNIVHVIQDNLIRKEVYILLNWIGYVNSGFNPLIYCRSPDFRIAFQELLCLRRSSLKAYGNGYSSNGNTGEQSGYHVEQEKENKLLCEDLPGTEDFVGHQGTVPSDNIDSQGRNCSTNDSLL

SMILES | IC50 (Human β2 adrenoceptor) [nM] | IC50 (Human M3 receptor) [nM]
O=C(NCc1ccc(-c2cccc([C@](O)(C(=O)OCC3CCN(Cc4ccccc4)CC3)c3ccccc3)c2)s1)c1ccc(CNC[C@H](O)c2ccc(O)c3[nH]c(=O)ccc23)cc1Cl [Compound 1, (1-Benzylpiperidin-4-yl)methyl (S)-2-(3-(5-((2-chloro-4-((((R)-2-hydroxy-2-(8-hydroxy-2-oxo-1,2-dihydroquinolin-5-yl)ethyl)amino)methyl)benzamido-)methyl)thiophen-2-yl)phenyl)-2-hydroxy-2-phenylacetate] | < 0.3 | 0.3 to 3
O=C(NCc1ccc(-c2cccc([C@](O)(C(=O)OCC3CCN(Cc4ccccc4)CC3)c3ccccc3)c2)s1)c1ccc(CNC[C@H](O)c2ccc(O)c3[nH]c(=O)ccc23)cc1 [Compound 1A, (1-Benzylpiperidin-4-yl)methyl (S)-2-hydroxy-2-(3-(5-((4-((((R)-2-hydroxy-2-(8-hydroxy-2-oxo-1,2-dihydroquinolin-5-yl)ethyl)amino)methyl)benzamido)-methyl)thiophen-2-yl)phenyl)-2-phenylacetate] | < 0.3 | 0.3 to 3
COc1cc(C(=O)NCc2ccc(-c3cccc([C@](O)(C(=O)OCC4CCN(Cc5ccccc5)CC4)c4ccccc4)c3)s2)ccc1CNC[C@H](O)c1ccc(O)c2[nH]c(=O)ccc12 [Compound 1B, (1-Benzylpiperidin-4-yl)methyl (S)-2-hydroxy-2-(3-(5-((4-((((R)-2-hydroxy-2-(8-hydroxy-2-oxo-1,2-dihydroquinolin-5-yl)ethyl)amino)methyl)-3-methoxybenzamido)methyl)thiophen-2-yl)phenyl)-2-phenylacetate] | < 0.3 | 0.3 to 3
COc1cc(CNC[C@H](O)c2ccc(O)c3[nH]c(=O)ccc23)ccc1C(=O)NCc1ccc(-c2cccc([C@](O)(C(=O)OCC3CCN(Cc4ccccc4)CC3)c3ccccc3)c2)s1 [Compound 1C, (1-Benzylpiperidin-4-yl)methyl (S)-2-hydroxy-2-(3-(5-((4-((((R)-2-hydroxy-2-(8-hydroxy-2-oxo-1,2-dihydroquinolin-5-yl)ethyl)amino)methyl)-2-methoxybenzamido)methyl)thiophen-2-yl)phenyl)-2-phenylacetate] | 0.3 to 3 | 0.3 to 3
COc1cc(C(=O)NCc2ccc(-c3cccc([C@](O)(C(=O)OCC4CCN(Cc5ccccc5)CC4)c4ccccc4)c3)s2)c(Cl)cc1CNC[C@H](O)c1ccc(O)c2[nH]c(=O)ccc12 [Compound 1D, (1-Benzylpiperidin-4-yl)methyl (S)-2-(3-(5-((2-chloro-4-((((R)-2-hydroxy-2-(8-hydroxy-2-oxo-1,2-dihydroquinolin-5-yl)ethyl)amino)methyl)-5-methoxybenzamido)methyl)thiophen-2-yl)phenyl)-2-hydroxy-2-phenylacetate] | < 0.3 | 0.3 to 3
COc1cc(C(=O)NCc2ccc(-c3cccc([C@](O)(C(=O)OCC4CCN(Cc5ccccc5)CC4)c4ccccc4)c3)s2)c(F)cc1CNC[C@H](O)c1ccc(O)c2[nH]c(=O)ccc12 [Compound 1E, (1-Benzylpiperidin-4-yl)methyl (S)-2-(3-(5-((2-fluoro-4-((((R)-2-hydroxy-2-(8-hydroxy-2-oxo-1,2-dihydroquinolin-5-yl)ethyl)amino)methyl)-5-methoxybenzamido)methyl)thiophen-2-yl)phenyl)-2-hydroxy-2-phenylacetate] | < 0.3 | 0.3 to 3
O=C(NCc1ccc(-c2cccc([C@](O)(C(=O)OCC3CCN(Cc4ccccc4)CC3)c3ccccc3)c2)s1)c1ccc(CNC[C@H](O)c2ccc(O)c3[nH]c(=O)ccc23)c(C(F)(F)F)c1 [Compound 1F, (1-Benzylpiperidin-4-yl)methyl (S)-2-hydroxy-2-(3-(5-((4-((((R)-2-hydroxy-2-(8-hydroxy-2-oxo-1,2-dihydroquinolin-5-yl)ethyl)amino)methyl)-3-(trifluoromethyl)benzamido)methyl)thiophen-2-yl)phenyl)-2-phenylacetate] | 0.3 to 3 | > 3
O=C(NCc1ccc(-c2cccc([C@](O)(C(=O)OCC3CCN(Cc4ccccc4)CC3)c3ccccc3)c2)s1)c1ccc(CNC[C@H](O)c2ccc(O)c3[nH]c(=O)ccc23)cc1F [Compound 1G, (1-Benzylpiperidin-4-yl)methyl (S)-2-(3-(5-((2-fluoro-4-((((R)-2-hydroxy-2-(8-hydroxy-2-oxo-1,2-dihydroquinolin-5-yl)ethyl)amino)methyl)-benzamido)methyl)thiophen-2-yl)phenyl)-2-hydroxy-2-phenylacetate] | < 0.3 | 0.3 to 3
O=C(NCc1ccc(-c2cccc([C@](O)(C(=O)OCC3CCN(Cc4ccccc4)CC3)c3ccccc3)c2)s1)c1ccc(CCNC[C@H](O)c2ccc(O)c3[nH]c(=O)ccc23)cc1 [Compound 1H, (1-Benzylpiperidin-4-yl)methyl (S)-2-hydroxy-2-(3-(5-((4-(2-(((R)-2-hydroxy-2-(8-hydroxy-2-oxo-1,2-dihydroquinolin-5-yl)ethyl)amino)ethyl)-benzamido)methyl)thiophen-2-yl)phenyl)-2-phenylacetate] | 0.3 to 3 | 0.3 to 3
CCOc1cc(C(=O)NCc2ccc(-c3cccc([C@](O)(C(=O)OCC4CCN(Cc5ccccc5)CC4)c4ccccc4)c3)s2)ccc1CNC[C@H](O)c1ccc(O)c2[nH]c(=O)ccc12 [Compound 1I, (1-Benzylpiperidin-4-yl)methyl (S)-2-(3-(5-((3-ethoxy-4-((((R)-2-hydroxy-2-(8-hydroxy-2-oxo-1,2-dihydroquinolin-5-yl)ethyl)amino)methyl)-benzamido)methyl)thiophen-2-yl)phenyl)-2-hydroxy-2-phenylacetate] | 0.3 to 3 | 0.3 to 3
O=C(NCc1ccc(-c2cccc([C@](O)(C(=O)OCC3CCN(Cc4ccccc4)CC3)c3ccccc3)c2)s1)c1ccc(CNC[C@H](O)c2ccc(O)c3[nH]c(=O)ccc23)c(F)c1 [Compound 1J, (1-Benzylpiperidin-4-yl)methyl (S)-2-(3-(5-((3-fluoro-4-((((R)-2-hydroxy-2-(8-hydroxy-2-oxo-1,2-dihydroquinolin-5-yl)ethyl)amino)methyl)-benzamido)methyl)thiophen-2-yl)phenyl)-2-hydroxy-2-phenylacetate] | < 0.3 | 0.3 to 3
COc1c(CNC[C@H](O)c2ccc(O)c3[nH]c(=O)ccc23)ccc(C(=O)NCc2ccc(-c3cccc([C@](O)(C(=O)OCC4CCN(Cc5ccccc5)CC4)c4ccccc4)c3)s2)c1F [Compound 1K, (1-Benzylpiperidin-4-yl)methyl (S)-2-(3-(5-((2-fluoro-4-((((R)-2-hydroxy-2-(8-hydroxy-2-oxo-1,2-dihydroquinolin-5-yl)ethyl)amino)methyl)-3-methoxybenzamido)methyl)thiophen-2-yl)phenyl)-2-hydroxy-2-phenylacetate] | < 0.3 | 0.3 to 3
O=C(NCc1ccc(-c2cccc([C@](O)(C(=O)OCC3CCN(Cc4ccccc4)CC3)c3ccccc3)c2)s1)c1ccc(CNC[C@H](O)c2ccc(O)c3[nH]c(=O)ccc23)nc1 [Compound 1L, (1-Benzylpiperidin-4-yl)methyl (S)-2-hydroxy-2-(3-(5-((6-((((R)-2-hydroxy-2-(8-hydroxy-2-oxo-1,2-dihydroquinolin-5-yl)ethyl)amino)methyl)-nicotinamido)methyl)thiophen-2-yl)phenyl)-2-phenylacetate] | < 0.3 | 0.3 to 3
COc1cc(C(=O)NCc2ccc(-c3cccc([C@](O)(C(=O)OCC4CCN(Cc5ccccc5)CC4)c4ccccc4)c3)s2)cc(F)c1CNC[C@H](O)c1ccc(O)c2[nH]c(=O)ccc12 [Compound 1M, (1-Benzylpiperidin-4-yl)methyl (S)-2-(3-(5-((3-fluoro-4-((((R)-2-hydroxy-2-(8-hydroxy-2-oxo-1,2-dihydroquinolin-5-yl)ethyl)amino)methyl)-5-methoxybenzamido)methyl)thiophen-2-yl)phenyl)-2-hydroxy-2-phenylacetate] | 0.3 to 3 | 0.3 to 3
CN1CCC(OC(=O)[C@](O)(c2ccccc2)c2cccc(-c3ccc(CNC(=O)c4ccc(CNC[C@H](O)c5ccc(O)c6[nH]c(=O)ccc56)cc4)s3)c2)CC1 [Compound 2, 1-Methylpiperidin-4-yl (S)-2-hydroxy-2-(3-(5-((4-((((R)-2-hydroxy-2-(8-hydroxy-2-oxo-1,2-dihydroquinolin-5-yl)ethyl)amino)methyl)benzamido)-methyl)thiophen-2-yl)phenyl)-2-phenylacetate] | < 0.3 | 
O=C(NCc1ccc(-c2cccc([C@](O)(C(=O)OC[C@H]3CCCN(Cc4ccccc4)C3)c3ccccc3)c2)s1)c1ccc(CNC[C@H](O)c2ccc(O)c3[nH]c(=O)ccc23)cc1 [Compound 2C, ((S)-1-Benzylpiperidin-3-yl)methyl (S)-2-hydroxy-2-(3-(5-((4-((((R)-2-hydroxy-2-(8-hydroxy-2-oxo-1,2-dihydroquinolin-5-yl)ethyl)amino)-methyl)benzamido)methyl)thiophen-2-yl)phenyl)-2-phenylacetate] | 0.3 to 3 | 
O=C(NCc1ccc(-c2cccc([C@](O)(C(=O)OC3CCN(Cc4ccccc4)CC3)c3ccccc3)c2)s1)c1ccc(CNC[C@H](O)c2ccc(O)c3[nH]c(=O)ccc23)cc1 [Compound 2F, 1-Benzylpiperidin-4-yl (S)-2-hydroxy-2-(3-(5-((4-((((R)-2-hydroxy-2-(8-hydroxy-2-oxo-1,2-dihydroquinolin-5-yl)ethyl)amino)methyl)-benzamido)methyl)thiophen-2-yl)phenyl)-2-phenylacetate] | < 0.3 | 
